Experimental data taken from patent US6710078B2, “5-Substituted-3(2H)-furanones useful for inhibition of farnesyl-protein transferase” (Wyeth Holdings Corporation, priority 2001, dated 2004).

Columns and labels:
FPTase [1] = target: T1, FPTase (Homo sapiens, UniProt P49354+P49356); assay: in vitro FTase Inhibition Assay, H-Ras as substrate for farnesylation; assay type: biochemical; settings: H-Ras used as substrate for farnesylation
Experimental: (§1) Enzyme test procedure: FPTase inhibition in vitro assay was performed according to James, G. L., Brown, M. S., and Goldstein, J. L., Methods in Enzymology, 1995, 255, 38-46; and Garcia, M. A., et al., J. Biol. Chem., 1993, 268,18415-18420.
(§2) Materials—Purified FPTase (Moomaw, J. F. and Casey, P. J., J. Biol. Chem., 1992, 267,17438-17443), purified His6-Ras, inhibitor compounds at 10 mg/ml or 10 mM in 100% DMSO, ^3H-FPP (50,000 dpm/pmol) Amersham, TCA/SDS (6%/2%), TCA (6%), Glass fiber filters ([…]), vacuum manifold or 96 well filtration plates.
(§3) Methods—1. Dilute FPTase inhibitors from stock solutions to 2.5× in 2.5% DMSO, 10 mM DTT, 0.5% octyl-B-glucoside. 2. Solution #1 is added to FPTase reaction in a volume of […]. 3. Standard reaction mix, […], contains 50 mM Tris (7.5),[…], 3 mM MgCl2, 20 mM KCl, 5 mM DTT, 0.2% octyl-B-glucoside, 1% DMSO, […], 10 ng FPTase, and various concentrations of FPTase inhibitors. 4. Incubate for 30-90 min at 25° C. 5. Stop reactions with TCA/SDS (6%/2%), hold at 4° C. for 45-60 min. 6. Filter by manifold or 96 well plate, wash filter 3-5× with TCA (6%). 7. Add scintillant to filters, measure ^3H-FPP incorporation into Ras protein.
(§4) Analysis of Results—Percent inhibition by test compounds is determined by the following:
(§5) (cpm from precipitated Ras with test compounds)−(background cpm)×100=% inhibition.
(§6) (cpm from precipitated Ras without test compounds)−(background cpm)

FPTase [2] = target: T1, FPTase; assay: in vitro FTase Inhibition Assay, K-Ras as substrate for farnesylation; assay type: biochemical; settings: K-Ras used as substrate for farnesylation
Experimental: as §1, §2, §3, §4, §5, §6

SMILES	IC50 (FPTase [1]) [nM]	IC50 (FPTase [2]) [nM]
CC1(c2ccccc2)OC(CC(SC[C@@H](O)[C@H](O)CS)c2ccccc2[N+](=O)[O-])=CC1=O (relative stereo) [Example 7, 5-[2-{[(2S*,3S*)-2,3-Dihydroxy-4-mercaptobutyl]thio}-2-(2-nitrophenyl)ethyl]-2-methyl-2-phenylfuran-3(2H)-one]	320	90
CC1(c2ccccc2)OC(CC(SCCCCS)c2ccsc2)=CC1=O (stereo not shown) [Example 9, 5-[2-[(4-Mercaptobutyl)thio]-2-(3-thienyl)ethyl]-2-methyl-2-phenylfuran-3(2H)-one]	1500	3700
CC1(c2ccccc2)OC(CC(SCCCCO)c2ccsc2)=CC1=O (stereo not shown) [Example 10, 5-[2-[(4-Hydroxybutyl)thio]-2-(3-thienyl)ethyl]-2-methyl-2-phenylfuran-3(2H)-one]	5500	> 10000
CC1(c2ccccc2)OC(CC(SCCCS)c2ccsc2)=CC1=O (stereo not shown) [Example 11, 5-[2-[(3-Mercaptopropyl)thio]-2-(3-thienyl)ethyl]-2-methyl-2-phenylfuran-3(2H)-one]	60	150
CC1(c2ccccc2)OC(CC(SCCCCCS)c2ccsc2)=CC1=O (stereo not shown) [Example 12, 5-[2-[(5-Mercaptopentyl)thio]-2-(3-thienyl)ethyl]-2-methyl-2-phenylfuran-3(2H)-one]	8000	
CC1(c2ccccc2)OC(CC(SCCS)c2ccsc2)=CC1=O (stereo not shown) [Example 13, 5-[2-[(2-Mercaptoethyl)thio]-2-(3-thienyl)ethyl]-2-methyl-2-phenylfuran-3(2H)-one]	180	1000
CC1(c2ccccc2)OC(CC(SCCCO)c2ccsc2)=CC1=O (stereo not shown) [Example 15, 5-[2-[(3-Hydroxypropyl)thio]-2-(3-thienyl)ethyl]-2-methyl-2-phenylfuran-3(2H)-one]	8300	
CC1(c2ccccc2)OC(CC(SCCc2cnccn2)c2ccsc2)=CC1=O (stereo not shown) [Example 17, 2-Methyl-2-phenyl-5-[2-[(2-pyrazin-2-ylethyl)thio]-2-(3-thienyl)ethyl]furan-3(2H)-one]	> 10000	> 10000
CC1(c2ccccc2)OC(CC(SCCO)c2ccsc2)=CC1=O (stereo not shown) [Example 18]	550	
CC1(c2ccc(F)cc2)OC(CC(SCCO)c2ccsc2)=CC1=O (stereo not shown) [Example 19, 2-(4-Fluorophenyl)-5-[2-[(2-hydroxyethyl)thio]-2-(3-thienyl)ethyl]-2-methylfuran-3(2H)-one]	> 10000	
CC1(c2ccccc2)OC(CC(SC[C@H](N)C(=O)O)c2ccsc2)=CC1=O (stereo partly drawn) [Example 20, (2R)-2-Amino-3-{[2-(5-methyl-4-oxo-5-phenyl-4,5-dihydrofuran-2-yl)-1-thien-3-ylethyl]thio}propanoic acid]	> 10000	

Now from value to compound:

IC50 (FPTase [1]) [nM]	IC50 (FPTase [2]) [nM]	SMILES
60	100	CC1(c2ccccc2)OC(CC(SC[C@@H](O)[C@H](O)CS)c2ccsc2)=CC1=O (relative stereo) [Example 1, 5-(2-{[(2S*,3S*)-2,3-Dihydroxy-4-mercaptobutyl]thio}-2-thien-3-ylethyl)-2-methyl-2-phenylfuran-3(2H)-one]
190		CC1(c2ccccc2)OC(CC(SC[C@H](O)[C@H](O)CS)c2ccsc2)=CC1=O (relative stereo) [Example 2, 5-(2-[[(2R*,3S*)-2,3-Dihydroxy-4-mercaptobutyl]thio]-2-thien-3-ylethyl)-2methyl-2-phenylfuran-3(2H)-one]
180		CC1(c2ccccc2)OC(CC(SC[C@H](O)[C@@H](O)CS)c2ccsc2)=CC1=O (stereo partly drawn) [Example 3, 5-[2-{[(2R,3R)-2,3-Dihydroxy-4-mercaptobutyl]thio}-2-(3-thienyl)ethyl]-2-methyl-2-phenylfuran-3(2H)-one]
120	140	CC1(c2ccc(F)cc2)OC(CC(SC[C@H](O)[C@@H](O)CS)c2ccsc2)=CC1=O (stereo partly drawn) [Example 6, 5-(2-{[(2R,3R)-2,3-Dihydroxy-4-mercaptobutyl]thio}-2-thien-3-ylethyl)-2-(4-fluorophenyl)-2-methylfuran-3(2H)-one]
500	700	CC(C1=CC(=O)C(C)(c2ccccc2)O1)C(SCC(O)C(O)CS)c1ccsc1 (stereo not shown) [Example 8, 5-(2-{[(2S*3S*)-2,3-Dihydroxy-4-mercaptobutyl]thio}-1-methyl-2-thien-3-ylethyl)-2-methyl-2-phenylfuran-3(2H)-one]
7200	4500	CC1(c2ccccc2)OC(CC(SCC(S)CO)c2ccsc2)=CC1=O (stereo not shown) [Example 14, 5-[2-[(3-Hydroxy-2-mercaptopropyl)thio]-2-(3-thienyl)ethyl]-2-methyl-2-phenylfuran-3(2H)-one]
5000		CC1(c2ccccc2)OC(CC(SCC(O)CO)c2ccsc2)=CC1=O (stereo not shown) [Example 16, 5-[2-[(2,3-Dihydroxypropyl)thio]-2-(3-thienyl)ethyl]-2-methyl-2-phenylfuran-3(2H)-one]
